Counter-ions that a name gives are not always drawn. Like-named read-outs stand apart in the source and are kept apart here.
What was measured:
1A9 = assay: SRB cytotoxicity, 1A9 parental cells; format: cell-based; settings: Homo sapiens, 72 h
Protocol: In these experiments, the P-glycoprotein expressing NCI-Adr resistant subline (Vickers et al., 1989. Mol Endocrinology 3 (1):157-164) was used. […] Briefly, cells were plated in 96 well dishes 24 hours prior to compound addition. Where noted, they were exposed to verapamil for 4 hours prior to compound addition and then throughout the treatment period (72 hours). The assay was terminated with the addition of cold TCA to a final concentration of 10% and the plates were incubated for one hour at 4° C. The plates were then washed 5 times with water and 100 μl of a Sulforhodamine B solution (4%) was added to each well. The plate was then incubated for 10 minutes at room temperature before removal of unbound dye by washing with 1% acetic acid.
The tubulin mutated, paclitaxel-resistant human ovarian carcinoma cell line 1A9-PTX10 and its parental paclitaxel-sensitive cell line 1A9 were derived from the A2780 human ovarian carcinoma cell line (J Biol Chem (1997) 272, 17118-17124).

MKK6 = biological target: T1, MKK6 (Homo sapiens, UniProt P52564); assay: MKK6 kinase assay; format: biochemical
T1 construct: purchased Upstate 14-303
T1 sequence (P52564 1-334): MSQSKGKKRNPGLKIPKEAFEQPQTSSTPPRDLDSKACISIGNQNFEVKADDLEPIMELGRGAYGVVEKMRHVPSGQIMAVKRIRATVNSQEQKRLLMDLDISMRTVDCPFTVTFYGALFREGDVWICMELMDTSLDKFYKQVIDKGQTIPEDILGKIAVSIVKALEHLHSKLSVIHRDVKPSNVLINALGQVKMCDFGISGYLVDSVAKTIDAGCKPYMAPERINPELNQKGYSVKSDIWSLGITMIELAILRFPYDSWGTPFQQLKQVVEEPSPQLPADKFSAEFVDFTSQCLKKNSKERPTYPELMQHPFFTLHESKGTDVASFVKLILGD
Protocol: • 1. Reaction Buffer (RB): 50 mM Tris-HCl, pH 7.5, 0.1 mM EGTA, 0.1% 2-mercaptoethanol, 0.1 mM sodium orthovanadate, 10 mM MgAc. • 2. Magnesium/ATP Cocktail (Catalog #20-113): 500 μM cold ATP and 75 mM magnesium chloride in 20 mM MOPS, pH 7.2, 25 mM β-glycerol phosphate, 5 mM EGTA, 1 mM sodium orthovanadate, 1 mM dithiothreitol. • 3. MKK6/SKK3, active: Dilute to 10 ng/μl with Reaction Buffer containing 0.03% Brij-35. Use 5 μl (50 ng) per assay point. • 4. p38a/SAPK2a, unactive (Catalog #14-252): Use 4 μl per assay point. • 5. Myelin Basic Protein (MBP, Catalog #13-104): Prepare a 2 mg/ml stock solution in 20 mM MOPS, pH 7.2, 25 mM β-glycerol phosphate, 5 mM EGTA, 1 mM sodium orthovanadate, 1 mM dithiothreitol. Use 10 μl per assay point. • 6. [γ-^32P]ATP: Stock 1 mCi/100 μl (3000 Ci/mmol, obtained from Perkin Elmer, Catalog #BLU002A). Make 10 μl aliquots (100 μCi/vial). Before starting the assay, dilute the Magnesium/ATP Cocktail 1:1 with sterile, distilled water. Then dilute an aliquot of [γ-^32P]ATP to 1 μCi/μl with 90 μl of the diluted Magnesium/ATP Cocktail. […]
• 1. On ice, add 1 μl RB to a microcentrifuge tube. • 2. Add 4 μl (2 μg) p38α/SAPK2a, unactive. • 3. Add 10 μl of Magnesium/ATP Cocktail. • 4. Add 5 μl (50 ng) MKK6/SKK3, active. • 5. Incubate for 30 minutes shaking at 30° C. • 6. Place on ice and proceed to Stage Two.
• 1. Remove 10 μL of the mixture prepared in Stage One and add to a new microcentrifuge tube. • 2. Add 20 μl of RB. • 3. Add 10 μl of MBP. • 4. Add 10 μl of the diluted [γ-^32P] ATP mixture (1 μCi/μl). • 5. Incubate for 15 minutes shaking at 30° C. • 6. Spot 40 μl on a 2 cm×2 cm P81 paper. • 7. Wash assay squares three times with 0.75% phosphoric acid for 5 minutes per wash. • 8. Wash assay squares once with acetone for five minutes. • 9. Transfer the assay squares to a scintillation vial and add 5 ml scintillation cocktail. • 10. Read in scintillation counter. Compare cpm of enzyme samples to cpm of control samples that contain no active enzyme (background control).

Abl T315I = biological target: T2, Abl T315I (Homo sapiens, UniProt P00519, T315I); assay: Abl T315I kinase assay; format: biochemical
T2 construct: purchased Upstate 14-522
Protocol: • 1. 5× Reaction Buffer: 40 mM MOPS, pH 7.0, 1 mM EDTA. • 2. Enzyme Dilution Buffer (EDB): 20 mM MOPS, pH 7.0, 1 mM EDTA, 0.01% Brij-35, 5% glycerol, 0.1% β-mercaptoethanol, 1 mg/ml BSA. • 3. […] Use 2.5 μl per assay point. • 4. […] Use 2.5 μl per assay point for a final assay concentration of 50 μM per assay point. • 5. [γ-^32P]ATP: Stock 1 mCi/100 μl (3000 Ci/mmol, obtained from PerkinElmer, Cat. # BLU002A). Make 10 μl aliquots (100 μCi/vial).
• 1. Add 5 μl of 5× Reaction Buffer per assay. • 2. Add 2.5 μl of Abltide (50 μM). • 3. […] Add 5 μl sterile, distilled water. • 5. Add 10 μl of the diluted [γ-^32P]ATP solution. • 6. Incubate for 10 minutes at 30° C. • 7. Transfer a 20 μl aliquot onto the center of a 2 cm×2 cm P81 paper. • 8. […] Wash the assay squares once for 5 minutes with acetone. • 10. Transfer the assay squares to vial and add 5 ml scintillation cocktail. • 11. Read in scintillation counter. Compare cpm of enzyme samples to cpm of control samples that contain background control.

[1] = kinase panel, 10 μM ATP, read-out: MAPK 6 / MKK6 IC50
[2] = read-out: MAP2K6 Inhibition (IC50)
[3] = read-out: Inhibition (IC50), Table II (accession U07563, no symbol)

Compound | IC50 (1A9) [nM] | IC50 (MKK6; [1]) [nM] | IC50 (MKK6; [2]) [nM] | IC50 (Abl T315I; read-out: Abl T315I IC50) [nM] | IC50 (Abl T315I; [3]) [nM]
CC(C)N1CCN(C(=O)COc2ccc(-c3n[nH]c4c3C(=O)c3c(NC(=O)NN5CCOCC5)cccc3-4)cc2)CC1 [Compound A37] | 13.3 | 10 to 100 | < 500 | 87 | < 100
COCCN1CCN(Cc2ccc(-c3n[nH]c4c3C(=O)c3c(NC(=O)NN5CCOCC5)cccc3-4)cc2)CC1 [Compound B16, N-[3-(4-{[4-(2-methoxyethyl)piperazinyl]methyl}phenyl)-4-oxoindeno[2,3-d]pyrazol-5-yl](morpholin-4-ylamino)carboxamide dihydrochloride] | 10.7 | < 100 | < 100 | ~100 | < 100

Source: US20080146555A1, “Uses of Kinase Inhibitors and Compositions Thereof” (GPC Biotech, Inc, priority 2004, published 2008)
